Test results reported in ChEMBL document CHEMBL3991601, “The target landscape of clinical kinase drugs” (Science, 2017).
Calls of active or inactive are those of the source.

Columns and labels:
[1] = target: Calcium/calmodulin-dependent protein kinase kinase 2 (Homo sapiens, UniProt Q96RR4)
[2] = target: Serine/threonine-protein kinase MRCK gamma (Homo sapiens, UniProt Q6DT37)
[3] = target: Guanine nucleotide-binding protein G(i) subunit alpha-2 (Homo sapiens, UniProt P04899)
[4] = target: T1, Serine/threonine-protein kinase D3 (Homo sapiens, UniProt O94806)
T1 sequence (O94806 whole entry): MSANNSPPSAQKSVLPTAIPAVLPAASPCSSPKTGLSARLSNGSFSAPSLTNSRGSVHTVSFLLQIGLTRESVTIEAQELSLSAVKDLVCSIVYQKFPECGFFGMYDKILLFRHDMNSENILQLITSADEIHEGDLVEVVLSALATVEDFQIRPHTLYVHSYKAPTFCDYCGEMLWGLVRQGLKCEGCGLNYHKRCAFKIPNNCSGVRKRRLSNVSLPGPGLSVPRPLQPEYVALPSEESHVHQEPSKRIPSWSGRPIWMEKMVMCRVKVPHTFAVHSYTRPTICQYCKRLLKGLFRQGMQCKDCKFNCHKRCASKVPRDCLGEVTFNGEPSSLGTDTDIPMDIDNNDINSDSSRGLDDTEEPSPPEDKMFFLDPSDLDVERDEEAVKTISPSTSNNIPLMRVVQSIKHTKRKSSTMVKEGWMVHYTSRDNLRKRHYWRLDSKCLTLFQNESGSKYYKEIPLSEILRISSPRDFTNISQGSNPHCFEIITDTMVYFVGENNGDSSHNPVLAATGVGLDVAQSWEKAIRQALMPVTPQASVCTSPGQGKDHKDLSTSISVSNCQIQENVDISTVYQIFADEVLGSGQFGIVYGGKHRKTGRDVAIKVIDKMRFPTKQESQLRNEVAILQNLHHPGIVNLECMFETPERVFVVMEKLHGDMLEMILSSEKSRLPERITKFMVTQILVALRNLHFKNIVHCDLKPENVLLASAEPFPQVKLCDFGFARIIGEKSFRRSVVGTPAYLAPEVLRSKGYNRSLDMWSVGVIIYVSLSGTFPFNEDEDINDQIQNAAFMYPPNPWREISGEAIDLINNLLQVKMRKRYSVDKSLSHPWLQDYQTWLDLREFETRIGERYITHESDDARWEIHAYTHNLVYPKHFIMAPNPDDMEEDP

[5] = target: T2, Signal recognition particle receptor subunit alpha (Homo sapiens, UniProt P08240)
T2 sequence (P08240 whole entry): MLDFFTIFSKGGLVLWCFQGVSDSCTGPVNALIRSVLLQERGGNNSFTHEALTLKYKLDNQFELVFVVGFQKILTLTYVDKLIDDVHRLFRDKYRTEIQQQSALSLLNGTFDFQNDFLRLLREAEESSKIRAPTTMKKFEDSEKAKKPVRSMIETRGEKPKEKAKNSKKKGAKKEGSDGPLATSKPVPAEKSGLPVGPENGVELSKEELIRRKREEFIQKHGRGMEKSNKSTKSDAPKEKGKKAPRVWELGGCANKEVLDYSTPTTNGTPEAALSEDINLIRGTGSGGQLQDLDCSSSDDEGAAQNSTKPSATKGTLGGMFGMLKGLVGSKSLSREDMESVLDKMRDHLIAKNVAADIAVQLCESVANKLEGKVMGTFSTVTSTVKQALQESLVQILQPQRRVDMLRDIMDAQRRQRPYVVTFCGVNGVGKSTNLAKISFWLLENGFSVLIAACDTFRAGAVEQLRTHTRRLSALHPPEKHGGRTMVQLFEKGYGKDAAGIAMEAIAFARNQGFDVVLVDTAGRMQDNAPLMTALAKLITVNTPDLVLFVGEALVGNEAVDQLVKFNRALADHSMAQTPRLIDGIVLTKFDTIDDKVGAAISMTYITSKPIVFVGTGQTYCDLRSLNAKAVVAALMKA

[6] = target: T3, Tyrosine-protein kinase Tec (Homo sapiens, UniProt P42680)
T3 sequence (P42680 whole entry): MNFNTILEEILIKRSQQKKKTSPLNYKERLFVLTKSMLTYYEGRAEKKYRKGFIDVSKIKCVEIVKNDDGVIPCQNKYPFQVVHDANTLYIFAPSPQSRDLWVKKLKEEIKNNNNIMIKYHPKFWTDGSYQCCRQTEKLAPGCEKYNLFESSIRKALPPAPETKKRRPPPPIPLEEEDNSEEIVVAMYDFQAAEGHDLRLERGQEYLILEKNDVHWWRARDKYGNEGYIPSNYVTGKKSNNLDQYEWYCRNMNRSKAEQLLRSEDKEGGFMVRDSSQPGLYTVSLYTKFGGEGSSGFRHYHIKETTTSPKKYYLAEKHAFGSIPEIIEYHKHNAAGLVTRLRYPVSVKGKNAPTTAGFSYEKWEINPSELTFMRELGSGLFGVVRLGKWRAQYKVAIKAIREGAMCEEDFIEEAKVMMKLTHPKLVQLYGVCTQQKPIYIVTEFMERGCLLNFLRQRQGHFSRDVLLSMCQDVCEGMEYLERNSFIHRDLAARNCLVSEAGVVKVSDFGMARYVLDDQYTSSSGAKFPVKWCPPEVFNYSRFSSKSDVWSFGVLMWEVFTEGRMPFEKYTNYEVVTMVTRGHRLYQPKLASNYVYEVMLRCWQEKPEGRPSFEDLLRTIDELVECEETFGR
Note: in the data inactive means no Kd found up to 30 µM.

Chain of Serine/threonine-protein kinase MRCK gamma (Q6DT37 whole entry): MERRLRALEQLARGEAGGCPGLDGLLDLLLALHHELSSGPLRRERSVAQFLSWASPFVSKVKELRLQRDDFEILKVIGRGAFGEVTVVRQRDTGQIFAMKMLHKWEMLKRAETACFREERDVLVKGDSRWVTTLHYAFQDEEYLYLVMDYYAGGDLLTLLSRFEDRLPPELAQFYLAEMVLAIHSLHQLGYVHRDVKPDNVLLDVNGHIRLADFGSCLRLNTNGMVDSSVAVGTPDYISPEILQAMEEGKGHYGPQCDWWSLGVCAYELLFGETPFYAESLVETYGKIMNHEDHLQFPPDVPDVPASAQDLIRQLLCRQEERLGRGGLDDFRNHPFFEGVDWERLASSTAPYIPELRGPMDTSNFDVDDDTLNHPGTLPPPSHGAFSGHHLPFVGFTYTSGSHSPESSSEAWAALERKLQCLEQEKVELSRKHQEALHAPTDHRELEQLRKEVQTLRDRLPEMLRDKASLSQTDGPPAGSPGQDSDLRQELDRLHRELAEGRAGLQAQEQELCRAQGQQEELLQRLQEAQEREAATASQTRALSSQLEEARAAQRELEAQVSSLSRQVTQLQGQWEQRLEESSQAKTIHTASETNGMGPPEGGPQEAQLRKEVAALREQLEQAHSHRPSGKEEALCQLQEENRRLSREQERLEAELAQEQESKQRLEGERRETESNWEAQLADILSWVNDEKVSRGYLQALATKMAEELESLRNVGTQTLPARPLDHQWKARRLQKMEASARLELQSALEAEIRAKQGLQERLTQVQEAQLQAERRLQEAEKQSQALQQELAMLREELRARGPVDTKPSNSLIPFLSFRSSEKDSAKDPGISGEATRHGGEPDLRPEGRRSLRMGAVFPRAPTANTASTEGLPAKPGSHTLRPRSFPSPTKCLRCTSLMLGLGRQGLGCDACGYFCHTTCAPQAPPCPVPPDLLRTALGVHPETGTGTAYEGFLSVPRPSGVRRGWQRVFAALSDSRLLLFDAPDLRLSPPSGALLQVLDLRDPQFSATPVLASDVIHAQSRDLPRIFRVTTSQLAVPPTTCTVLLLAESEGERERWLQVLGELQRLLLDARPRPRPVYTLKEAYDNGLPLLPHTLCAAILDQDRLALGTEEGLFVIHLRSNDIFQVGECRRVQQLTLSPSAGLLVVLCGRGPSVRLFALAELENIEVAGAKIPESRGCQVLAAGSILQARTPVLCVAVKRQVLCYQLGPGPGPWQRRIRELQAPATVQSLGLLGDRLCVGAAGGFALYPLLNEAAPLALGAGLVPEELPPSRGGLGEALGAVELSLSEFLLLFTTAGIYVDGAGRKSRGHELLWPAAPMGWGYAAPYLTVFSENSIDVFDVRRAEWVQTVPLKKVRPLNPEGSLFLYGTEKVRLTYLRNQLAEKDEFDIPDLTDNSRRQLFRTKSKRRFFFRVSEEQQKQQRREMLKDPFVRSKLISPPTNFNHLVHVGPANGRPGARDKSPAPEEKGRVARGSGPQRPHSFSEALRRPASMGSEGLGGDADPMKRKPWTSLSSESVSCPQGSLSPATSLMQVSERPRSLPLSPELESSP
Chain of Calcium/calmodulin-dependent protein kinase kinase 2 (Q96RR4 whole entry): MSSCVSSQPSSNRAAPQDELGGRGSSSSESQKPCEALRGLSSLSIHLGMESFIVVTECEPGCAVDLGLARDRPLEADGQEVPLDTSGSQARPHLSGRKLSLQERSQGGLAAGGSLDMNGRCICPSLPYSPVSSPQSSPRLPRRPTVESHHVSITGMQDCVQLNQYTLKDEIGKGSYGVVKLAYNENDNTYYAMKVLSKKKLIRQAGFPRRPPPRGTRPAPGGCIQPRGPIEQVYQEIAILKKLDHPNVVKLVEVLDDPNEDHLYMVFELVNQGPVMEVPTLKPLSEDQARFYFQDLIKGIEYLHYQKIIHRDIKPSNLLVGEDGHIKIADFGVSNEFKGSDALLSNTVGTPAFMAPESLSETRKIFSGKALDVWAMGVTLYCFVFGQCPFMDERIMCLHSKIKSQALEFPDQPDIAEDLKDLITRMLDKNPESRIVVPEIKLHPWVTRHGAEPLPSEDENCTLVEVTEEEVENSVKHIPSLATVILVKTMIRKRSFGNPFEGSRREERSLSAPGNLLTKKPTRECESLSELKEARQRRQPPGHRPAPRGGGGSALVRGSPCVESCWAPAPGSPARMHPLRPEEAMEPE
Chain of Guanine nucleotide-binding protein G(i) subunit alpha-2 (P04899 whole entry): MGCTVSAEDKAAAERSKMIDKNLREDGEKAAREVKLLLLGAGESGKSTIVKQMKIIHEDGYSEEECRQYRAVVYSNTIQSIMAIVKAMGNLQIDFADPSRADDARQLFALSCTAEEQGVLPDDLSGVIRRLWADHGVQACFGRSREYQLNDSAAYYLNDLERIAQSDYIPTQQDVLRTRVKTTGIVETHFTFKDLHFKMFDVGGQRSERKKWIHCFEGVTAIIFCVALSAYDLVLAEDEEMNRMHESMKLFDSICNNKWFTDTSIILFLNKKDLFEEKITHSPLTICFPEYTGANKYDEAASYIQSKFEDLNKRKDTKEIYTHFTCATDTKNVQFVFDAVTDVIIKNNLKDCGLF

Row | Compound | Kd [1] | Kd [2] | Kd [3] | Kd [4] | Kd [5] | Kd [6]
1 | O=c1[nH]c([C@@H]2CCCN2)nc2c1oc1ccc(Cl)cc12 | > 30 µM (inactive) | > 30 µM (inactive) | > 30 µM (inactive) | > 30 µM (inactive) | > 30 µM (inactive) | > 30 µM (inactive)
2 | Cn1cc(-c2[nH]c3cc(NC(=O)[C@H](N)C4CCCCC4)cc4c3c2C=NNC4=O)cn1 | > 30 µM (inactive) | > 30 µM (inactive) | > 30 µM (inactive) | > 30 µM (inactive) | > 30 µM (inactive) | > 30 µM (inactive)
3 | CCN1CCN(Cc2ccc(Nc3ncc(F)c(-c4cc(F)c5nc(C)n(C(C)C)c5c4)n3)nc2)CC1 [ABEMACICLIB] | 2.6 µM (active) | > 30 µM (inactive) | > 30 µM (inactive) | 1.84 µM (active) | > 30 µM (inactive) | > 30 µM (inactive)
4 | Cc1c(NC(=O)OC[C@@H]2COCCN2)cn2ncnc(Nc3ccc4c(cnn4Cc4cccc(F)c4)c3)c12 [AC-480] | > 30 µM (inactive) | > 30 µM (inactive) | > 30 µM (inactive) | > 30 µM (inactive) |  | > 30 µM (inactive)
5 | CCc1cc2c(cc1N1CCC(N3CCOCC3)CC1)C(C)(C)c1[nH]c3cc(C#N)ccc3c1C2=O [ALECTINIB] | 35.6 µM (active) | > 30 µM (inactive) | > 30 µM (inactive) | > 30 µM (inactive) | > 30 µM (inactive) | > 30 µM (inactive)
6 | COc1ccc2c(OCc3nnc4ccc(-c5ccccc5)nn34)ccnc2c1 [AMG-208] | > 30 µM (inactive) | > 30 µM (inactive) | > 30 µM (inactive) | > 30 µM (inactive) | > 30 µM (inactive) | > 30 µM (inactive)
7 | S=C(NCc1ccc2c(c1)OCO2)N1CCN(c2ncnc3c2oc2ccccc23)CC1 [AMUVATINIB] | > 30 µM (inactive) | > 30 µM (inactive) | > 30 µM (inactive) | > 30 µM (inactive) | > 30 µM (inactive) | > 30 µM (inactive)
8 | NC[C@@](O)(c1ccc(Cl)cc1)c1ccc(-c2cn[nH]c2)cc1 [AT-13148] | > 30 µM (inactive) | > 30 µM (inactive) | > 30 µM (inactive) | > 30 µM (inactive) | > 30 µM (inactive) | > 30 µM (inactive)
9 | Cc1cc(Nc2nc(N[C@@H](C)c3ncc(F)cn3)ncc2Cl)n[nH]1 [AZD-1480] | > 30 µM (inactive) | > 30 µM (inactive) | > 30 µM (inactive) | > 30 µM (inactive) | > 30 µM (inactive) | > 30 µM (inactive)
10 | COc1cc2nccc(Oc3ccc(NC(=O)C4(C(=O)Nc5ccc(F)cc5)CC4)cc3)c2cc1OC [CABOZANTINIB] | > 30 µM (inactive) | > 30 µM (inactive) | > 30 µM (inactive) | > 30 µM (inactive) | > 30 µM (inactive) | > 30 µM (inactive)
11 | c1cc(OCCN2CCCCC2)cc(-c2n[nH]c3ccc(-c4nc[nH]n4)cc23)c1 [CC-401] | > 30 µM (inactive) | > 30 µM (inactive) | > 30 µM (inactive) | 0.09 µM (active) | > 30 µM (inactive) | > 30 µM (inactive)
12 | CC1(COc2ccc3c(c2)ncn3-c2ccc3cccc(N4CCC(N)CC4)c3n2)COC1 [CRENOLANIB] | 0.135 µM (active) | > 30 µM (inactive) | > 30 µM (inactive) | 14.8 µM (active) |  | > 30 µM (inactive)
13 | COc1cc2ncnc(Nc3ccc(F)c(Cl)c3)c2cc1NC(=O)/C=C/CN1CCCCC1 [DACOMITINIB ANHYDROUS] | > 30 µM (inactive) | > 30 µM (inactive) | > 30 µM (inactive) | > 30 µM (inactive) | > 30 µM (inactive) | > 30 µM (inactive)
14 | COc1cc(Nc2ncc(F)c(Nc3ccc4c(n3)N(COP(=O)(O)O)C(=O)C(C)(C)O4)n2)cc(OC)c1OC [FOSTAMATINIB] | > 30 µM (inactive) | > 30 µM (inactive) | > 30 µM (inactive) | > 30 µM (inactive) | > 30 µM (inactive) | > 30 µM (inactive)
15 | CCc1nc(C(N)=O)c(Nc2ccc(N3CCC(N4CCN(C)CC4)CC3)c(OC)c2)nc1NC1CCOCC1 [GILTERITINIB] | 2.65 µM (active) |  | > 30 µM (inactive) | > 30 µM (inactive) | > 30 µM (inactive) | > 30 µM (inactive)
16 | O=S(=O)(c1cccc2c(O)nccc12)N1CCCNCC1 [HYDROXYFASUDIL] | > 30 µM (inactive) | > 30 µM (inactive) | > 30 µM (inactive) | > 30 µM (inactive) | > 30 µM (inactive) | > 30 µM (inactive)
17 | C#Cc1cccc(Nc2ncnc3cc4c(cc23)OCCOCCOCCO4)c1 [ICOTINIB] | > 30 µM (inactive) | > 30 µM (inactive) | > 30 µM (inactive) | > 30 µM (inactive) | > 30 µM (inactive) | > 30 µM (inactive)
18 | COc1cc2ncnc3c2cc1OCCCCCN(C)Cc1ccc(Br)cc1N3 [JNJ-26483327] | > 30 µM (inactive) | > 30 µM (inactive) | > 30 µM (inactive) | > 30 µM (inactive) | > 30 µM (inactive) | > 30 µM (inactive)
19 | COc1cccc2cc(-c3nc([C@H]4CC[C@H](C(=O)O)CC4)n4ncnc(N)c34)[nH]c12 [OSI-027] | > 30 µM (inactive) | > 30 µM (inactive) | > 30 µM (inactive) | > 30 µM (inactive) | > 30 µM (inactive) | > 30 µM (inactive)
20 | CC(C)CC(=O)Nc1[nH]nc2c1CN(C(=O)C1CCN(C)CC1)C2(C)C [PHA-793887] | > 30 µM (inactive) | > 30 µM (inactive) | > 30 µM (inactive) | 0.065 µM (active) |  | > 30 µM (inactive)
21 | COc1cc(F)c(F)c(Nc2ccc(I)cc2F)c1NS(=O)(=O)C1(C[C@H](O)CO)CC1 [REFAMETINIB] | > 30 µM (inactive) | > 30 µM (inactive) | > 30 µM (inactive) | > 30 µM (inactive) |  | > 30 µM (inactive)
22 | CN1CCN(c2nc(C3=C(c4c[nH]c5ccccc45)C(=O)NC3=O)c3ccccc3n2)CC1 [SOTRASTAURIN] | > 30 µM (inactive) | > 30 µM (inactive) | > 30 µM (inactive) | > 30 µM (inactive) |  | > 30 µM (inactive)
23 | O[C@H]1CC[C@H](Nc2ncc3nc(Nc4c(F)cc(F)cc4F)n([C@H]4CCOC4)c3n2)CC1 [TANZISERTIB] | > 30 µM (inactive) | > 30 µM (inactive) | > 30 µM (inactive) | > 30 µM (inactive) |  | > 30 µM (inactive)
24 | NC(=O)c1ccc(N(C(N)=O)c2c(F)cccc2F)nc1-c1ccc(F)cc1F [VX-702] | > 30 µM (inactive) |  | > 30 µM (inactive) | > 30 µM (inactive) | > 30 µM (inactive) | > 30 µM (inactive)
